Source: PMC3306279, “Evaluation of an Antimicrobial L-Amino Acid Oxidase and Peptide Derivatives from Bothropoides mattogrosensis Pitviper Venom” (PLoS ONE, 2012)
Ends that are not written are not given here.

Columns and labels:
Assay type in all cases: cell-based
[1] = test system: Bacillus subtilis (ATCC 6633); assay: MIC determination, broth dilution; conditions: fragments, first figure of the cell (µM/µg.mL^−1); Mueller-Hinton broth, 37°C, 12 h; 100% growth inhibition
Procedure: (§1) The minimal inhibitory concentration (MIC) was determined using a standardized dilution method according to NCSLA guidelines. Overnight colonies of Bacillus subtilis (ATCC 6633), Enterococcus faecalis (ATCC 12953), Staphylococcus aureus (ATCC29213), Streptococcus pyogenes (ATCC19615), Escherichia coli (ATCC8739), Klebsiella pneumonia (ATCC13885), Proteus mirabilis (ATCC25933), Pseudomonas aeruginosa ATCC 15442 and Salmonella typhimurium (ATCC14028) were suspended to a turbidity of 0.5 units and further diluted in Mueller-Hinton broth (MH) (Himedia - India). […] Ten microliters of each concentration was added to each corresponding well of a 96-well plate (TPP, Switzerland) and 1×10^5 bacteria in the volume of 90 µL. The plate was incubated at 37°C for 12 h.

[2] = test system: Klebsiella pneumoniae (ATCC13885); assay: MIC determination, broth dilution; conditions: fragments, first figure of the cell (µM/µg.mL^−1); Mueller-Hinton broth, 37°C, 12 h; 100% growth inhibition
Procedure: as §1

[3] = test system: Staphylococcus aureus (ATCC29213); assay: MIC determination, broth dilution; conditions: fragments, first figure of the cell (µM/µg.mL^−1); Mueller-Hinton broth, 37°C, 12 h; 100% growth inhibition
Procedure: as §1

[4] = test system: Proteus mirabilis (ATCC25933); assay: MIC determination, broth dilution; conditions: fragments, first figure of the cell (µM/µg.mL^−1); Mueller-Hinton broth, 37°C, 12 h; 100% growth inhibition
Procedure: as §1

[5] = test system: Enterococcus faecalis (ATCC 12953); assay: MIC determination, broth dilution; conditions: fragments, first figure of the cell (µM/µg.mL^−1); Mueller-Hinton broth, 37°C, 12 h; 100% growth inhibition
Procedure: as §1

[6] = test system: Escherichia coli (ATCC8739); assay: MIC determination, broth dilution; conditions: fragments, first figure of the cell (µM/µg.mL^−1); Mueller-Hinton broth, 37°C, 12 h; 100% growth inhibition
Procedure: as §1

[7] = test system: Streptococcus pyogenes (ATCC19615); assay: MIC determination, broth dilution; conditions: fragments, first figure of the cell (µM/µg.mL^−1); Mueller-Hinton broth, 37°C, 12 h; 100% growth inhibition
Procedure: as §1

[8] = test system: Pseudomonas aeruginosa (ATCC15442); assay: MIC determination, broth dilution; conditions: fragments, first figure of the cell (µM/µg.mL^−1); Mueller-Hinton broth, 37°C, 12 h; 100% growth inhibition
Procedure: as §1

[9] = test system: RAW 264.7 murine macrophage-like cells; assay: Cell cytotoxicity, MTT assay; conditions: for cell viability: RAW264.7, even at higher concentrations; for Cytotoxicity, MTT assay: RAW264.7 cells, sample 512 µg.mL^−1, 24 h, mean ± S.D., three independent experiments
Procedure: Sterile filtered MTT (3-(4,5-dimethylthiazolyl)-2,5-diphenyl-tetrazoliumbromide; Sigma-Aldrich, USA) solution (5 mg.mL^−1 in PBS) was dark stored at −20°C. RAW 264.7 murine macrophage-like cells, 1×10^5 cells/well was seeded in 96 well plates (TPP, Switzerland), in supplemented DMEM medium (4 mM glutamine, 10% FCS and 100 units.ml^−1 penicillin/streptomycin) containing multiple treatments. Treatments consisted of fractions F-44, F-51, F-68, BmLAO (0–512 µg.mL^−1) and fragments BmLAO-f1, BmLAO-f2 and BmLAO-f3 at different concentrations (0–500 µM). After overnight incubation, 60% of medium was then removed, and 10 µl of the MTT solution was added to each well; the plates were then incubated for 4 h in the presence of 5% CO2 at 37°C. The blue formazan product generated was dissolved by the addition of 100 µl of 100% DMSO (Mallinckrodt Chemical) per well. The plates were then gently swirled for 5 min at room temperature in order to dissolve the precipitate. The absorbance was monitored at 575 nm in a Biotek Powerwave HT microplate spectrophotometer (Bio-Tek Instruments, USA).

human erythrocytes = assay: Hemolysis assay; conditions: for haemolysis: even at higher concentrations; for Cytotoxicity, Hemolysis assay: sample 512 µg.mL^−1, 24 h by the footnote (method: 1 h, 37°C), relative to 0.1% triton X-100, OD 540 nm, mean ± S.D., three independent experiments
Procedure: Human heparine-blood was obtained from the Universidade Católica de Brasilia cell collection. Collection was obtained with written informed consent. Heparine blood cells were centrifuged at 800 g for 10 min. The erythrocytes were washed three times and re-suspended in 0.1% PBS, pH 7.4. […] The positive control was 0.1% triton X-100 (Sigma-Aldrich, USA). The samples were then centrifuged at 800 g for 10 min. The optical density at 540 nm of the supernatant was measured. The relative optical density compared to that of the suspension treated with 0.1% triton X-100 defined hemolysis percent.

[10] = test system: Salmonella typhimurium (ATCC14028); assay: MIC determination, broth dilution; conditions: fragments, first figure of the cell (µM/µg.mL^−1); Mueller-Hinton broth, 37°C, 12 h; 100% growth inhibition
Procedure: as §1

| Substance | MIC [1] | MIC [2] | MIC [3] | MIC [4] | MIC [5] | MIC [6] | MIC [7] | MIC [8] | cell viability [9] | Cytotoxicity, MTT assay [9] | haemolysis (human erythrocytes) | Cytotoxicity, Hemolysis assay (human erythrocytes) | MIC [10] |
| --- | --- | --- | --- | --- | --- | --- | --- | --- | --- | --- | --- | --- | --- |
| KKFWEDDG-NH2 [BmLAO-f2] | 250 µM | 125 µM | 250 µM | 125 µM | 125 µM | 250 µM | 125 µM | 250 µM | over 78% | 13.6±4.5 % of control | less than 25% | 11.32±2.9 % of control |  |
| IKFEPPLPPKKAH-NH2 [BmLAO-f1] | 43 µM | 22 µM | 43 µM | 43 µM | 43 µM | 22 µM | 43 µM | 22 µM |  | 21.0±3.5 % of control | less than 25% | 13.75±3.6 % of control | 43 µM |
| IYYPPNHNFP-NH2 [BmLAO-f3] | 220 µM | 110 µM | 220 µM | 110 µM | 110 µM | 220 µM | 110 µM | 220 µM | over 78% | 11.2±2.1 % of control | less than 25% | 9.87±3.1 % of control | 220 µM |
